Key:
[1] = tested on: rats with SCW-induced arthritis; assay: Efficacy in rats with SCW-induced arthritis (ankle thickness, clinical score); type: in vivo, rat; conditions: for Clinical Scores (0-8), Day 18 (mean): Day 18, start of treatment; for Clinical Scores (0-8), Day 26 (mean): Day 18-26
Excerpt: A polyarthritis can be induced in female Lewis rats following i.p. administration of streptococcal cell wall (SCW) proteoglycan-polysaccharides (PG-PS) (J Exp Med 1977; 146:1585-1602). The model has an acute phase (days 3-7) that is complement and neutrophil-dependent and that resolves. A chronic erosive phase begins at about day ten and is dependent on the development of specific T cell immunity to the PG-GS, which resists digestion and remains present in synovial macrophages for months. Like rheumatoid arthritis, SCW-induced arthritis is reduced by TNF inhibitors, and the dependence of SCW-induced arthritis on macrophages (Rheumatology; 2001; 40:978-987) and the strong association of rheumatoid arthritis severity with synovial-tissue macrophage counts (Ann Rheum Dis; 2005; 64:834-838) makes SCW-arthritis an attractive model for testing potential therapeutic agents. SCW PG-PS 10S (Beckton Dickinson Cat#210866) suspended in saline was vortexed for 30 seconds and sonicated for 3 min with a probe type sonicator prior to injection. Female Lewis (LEW/N) rats, 5-6 weeks of age (80-100 g) were injected (i.p.) with SCW PG-PS (15 μg of rhamnose/gram BW) in the lower left quadrant of the abdomen using a 1 mL syringe fitted with a 23-gauge needle. Control (disease-free) rats were treated in a similar manner with sterile saline. Control rats were sacrificed on day 5 and groups of SCW-injected rats were sacrificed on day 5 when acute inflammation was maximal or on day 18 when chronic inflammation was established.
To induce arthritis, Female Lewis (LEW/N) rats, 5-6 weeks of age (80-100 g) were injected (i.p.) with SCW PG-PS as described above. Eighteen days later, arthritis was well established. Calipers were used to measure the width (anterior to posterior surface) of the left and right hind ankles of each rat. Each ankle was measured 3 times and averaged, and treatment groups were randomized based on ankle thickness (Table 6). Commencing on day 18, randomized groups of arthritic rats (n=5 rats/group) received vehicle or 5, 20, or 50 mg/kg Compound-α BID by oral gavage. Vehicle consisted of an aqueous mixture containing 2% (v:v) N-methylpyrrolidone, 5% (v:v) glycerine, and 20% (w:v) captisol. Treatment continued daily through the morning of day 26.
By day 18 mean ankle thickness was increased an average of >4.4 mm compared to disease free rats. Rats treated with vehicle alone continued to gradually develop a more severe arthritis based on ankle thickness measurements over the eight-day treatment period (Table 6). […] By day 26, the disease associated increase in ankle thickness had been reduced 27, 37, and 46 percent by 5, 20, and 50 mg/kg Compound-α, respectively.
Hind paw inflammation clinical scores were assigned based on swelling and erythema.

[2] = biological target: T1, MMP9 in ankles of SCW-induced rats (Rattus norvegicus, UniProt P50282); assay: Pro and active MMP9 in ankles of rats with SCW-induced arthritis by Western blot; type: in vivo; conditions: Day 26, four hours after AM dose, FIG. 3A lanes 4-9
T1 construct: from tissue; host or cells: tibia-tarsus joints (ankles) of female Lewis rats
Method: Hind-limbs were skinned, severed just above the tibia-tarsus joint and below the metatarsals, and the tibia-tarsus joints (ankles) were weighed, snap frozen and pulverized on dry ice using a hammer and anvil. The pulverized tissue was suspended in 3 volumes (w:v) of ice-cold homogenization buffer containing 50 mM Tris pH 7.5, 150 mM NaCl, 5 mM EDTA, 1% Triton X100, 0.05% Brij 30, 10% dimethylsulfoxide and Complete EDTA-free Protease Inhibitor Cocktail (Roche Diagnostics). The suspended tissue was homogenized sequentially with a Kinematica AG Polytron and a Dounce homogenizer. Homogenates were centrifuged at 16,000×g for 10 min at 4° C. and the soluble fractions were saved. Dimethylsulfoxide was removed from a portion of each soluble fraction using PD MiniTrap™ G-25 desalting columns (GE Healthcare). Homogenates (0.25 mL), free of DMSO, were diluted with an equal volume of binding buffer (i.e., homogenization buffer without dimethylsufoxide) and adjusted to contain 50 μL of a 50% slurry of gelatin-conjugated sepharose. […]
To induce arthritis, Female Lewis (LEW/N) rats, 5-6 weeks of age (80-100 g) were injected (i.p.) with SCW PG-PS as described above. […] Each ankle was measured 3 times and averaged, and treatment groups were randomized based on ankle thickness (Table 6). […]

T1 sequence (P50282 20-708): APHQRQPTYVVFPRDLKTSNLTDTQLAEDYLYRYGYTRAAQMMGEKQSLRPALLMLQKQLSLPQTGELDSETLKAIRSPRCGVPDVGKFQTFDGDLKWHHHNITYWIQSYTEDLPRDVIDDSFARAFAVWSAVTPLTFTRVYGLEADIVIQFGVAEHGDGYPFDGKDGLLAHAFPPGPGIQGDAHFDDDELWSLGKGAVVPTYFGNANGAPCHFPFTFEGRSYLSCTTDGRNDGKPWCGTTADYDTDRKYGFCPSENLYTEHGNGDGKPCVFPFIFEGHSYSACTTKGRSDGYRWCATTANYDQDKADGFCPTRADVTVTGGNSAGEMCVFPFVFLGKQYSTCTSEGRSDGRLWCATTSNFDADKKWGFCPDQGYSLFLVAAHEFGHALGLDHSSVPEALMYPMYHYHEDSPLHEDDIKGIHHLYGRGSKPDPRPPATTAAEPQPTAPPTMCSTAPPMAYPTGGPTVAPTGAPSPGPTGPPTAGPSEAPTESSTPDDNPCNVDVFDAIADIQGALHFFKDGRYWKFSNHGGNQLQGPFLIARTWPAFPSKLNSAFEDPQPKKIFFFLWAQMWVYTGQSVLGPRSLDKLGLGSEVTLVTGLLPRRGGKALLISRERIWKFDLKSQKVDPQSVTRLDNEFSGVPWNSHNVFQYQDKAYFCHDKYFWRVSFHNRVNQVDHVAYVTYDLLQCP

## Cc1nc(C)c(-c2csc(Nc3cc(S(N)(=O)=O)ccc3OC(C)C)n2)s1 [Compound-α, 3-(2′,4′-Dimethyl-[4,5′]bithiazolyl-2-ylamino)-4-isopropoxy-benzenesulfonamide.HBr]
[1]; 5 mg/kg BID group
  Clinical Scores (0-8), Day 18 (mean): 8.00
[1]; 5 mg/kg BID
  Clinical Scores (0-8), Day 26 (mean): 6.80
[1]; 20 mg/kg BID group
  Clinical Scores (0-8), Day 18 (mean): 8.00
[1]; 20 mg/kg BID
  Clinical Scores (0-8), Day 26 (mean): 5.20
[1]; 50 mg/kg BID group
  Clinical Scores (0-8), Day 18 (mean): 7.80
[1]; 50 mg/kg BID
  Clinical Scores (0-8), Day 26 (mean): 4.40
[2]
  abundance of proMMP9 in ankles: did not reduce the abundance of proMMP9
[2]; listed as Compound α
  abundance of proMMP9 in ankles: did not reduce the abundance of proMMP-9

Source: patent US20120129843A1, “PYRIDYL-THIAZOLYL INHIBITORS OF PRO-MATRIX METALLOPROTEINASE ACTIVATION” (priority 2010, published 2012)
